The text below walks through data of patent US8735398B2 (Bristol-Myers Squibb Company, priority 2009, dated 2014).

SMILES strings stand for the structures. Like-named read-outs stand apart in the source and are kept apart here.

This experiment has as its system HCV 1b genotype. Kind of experiment: HCV replicon assay (HCV-neo replicon cells, wild-type). In kind it is cell-based, Hepatitis C virus. As to conditions: HCV 1b genotype replicon. The procedure, abridged:
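Inhibition was tested in replicon-bearing cells, both wild-type HCV-neo and lines with NS5A resistance substitutions, using the O'Boyle et al. 2005 replicon method or luciferase-reporter formats.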
On the technique in general: In antiviral work, replicon cells carry a viral genome segment that copies itself.

[1] abbreviates: Hepatitis C virus, class symbols, read-out: EC50 Range against HCV 1b.
Setting [2] is: Hepatitis C virus, read-out: EC50 1b.
Setting [3] is: Hepatitis C virus, class symbol, read-out: EC50 Range against HCV 1b.
Where [4] appears, read: class symbol, read-out: EC50 Range against HCV 1b.

As usually defined, the EC50 is the midpoint of the concentration-response curve. Regarding `Cc1cc(C(=O)N2CCC[C@H]2C(=O)Nc2ccc(-c3cnc(-c4ccc(NC(=O)[C@@H]5CCCN5C(=O)c5cc(C)c(C)o5)cc4)o3)cc2)oc1C` [XY-27, (2S,2′S)-N,N′-(1,3-oxazole-2,5-diyldi-4,1-phenylene)bis(1-(4,5-dimethyl-2-furoyl)-2-pyrrolidinecarboxamide)], the EC50 under setting [1] is 100 to 999 nM.

Turning to `CC(C)(C)O[C@H]1CN[C@H](C(=O)Nc2ccc(-c3cnc(-c4ccc(NC(=O)[C@@H]5C[C@@H](OC(C)(C)C)CN5)cc4)o3)cc2)C1` [XY-60, (2S,4R,2′S,4′R)-N,N′-(1,3-oxazole-2,5-diyldi-4,1-phenylene)bis(4-tert-butoxy-2-pyrrolidinecarboxamide)], the EC50 under setting [1] was in the range of 1000 to 10000 nM.

As to `O=C(Nc1ccc(-c2cnc(-c3ccc(NC(=O)[C@@H]4CCCN4C(=O)C(O)c4cccs4)cc3)o2)cc1)[C@@H]1CCCN1C(=O)C(O)c1cccs1` (stereo partly drawn) [JR-6, (2S,2′S)-N,N′-(2,5-oxazolediyldi-4,1-phenylene)bis[1-(hydroxy-2-thienylacetyl)-2-pyrrolidinecarboxamide]], the EC50 is, setting by setting: under setting [1], less than 4.57 nM; under setting [2], less than 5 nM.

Regarding `O=C(Nc1ccc(-c2cnc(-c3ccc(NC(=O)[C@@H]4CCCN4C(=O)[C@H]4CCCN4)cc3)o2)cc1)[C@@H]1CCCN1C(=O)[C@H]1CCCN1` [Example D-35, (2S,2′S)-N,N′-(1,3-oxazole-2,5-diyldi-4,1-phenylene)bis(1-((2R)-2-pyrrolidinylcarbonyl)-2-pyrrolidinecarboxamide)], the concentration giving a half-maximal response (EC50) is 1000 to 10000 nM under setting [3] and 5240 nM under setting [2].

In the case of `CO[C@@H](C(=O)N1CCC[C@H]1C(=O)Nc1ccc(-c2cc(-c3ccc(NC(=O)[C@@H]4CCCN4C(=O)[C@H](OC)c4ccccc4)cc3)[nH]n2)cc1)c1ccccc1` [JG-37, (2S,2′S)-N,N′-(1H-pyrazole-3,5-diyldi-4,1-phenylene)bis(1-((2R)-2-methoxy-2-phenylacetyl)-2-pyrrolidinecarboxamide)], the concentration for a half-maximal effect (EC50) under setting [3] is less than 4.57 nM.

For `Cc1cccc(CC(=O)N2C[C@H](O)C[C@H]2C(=O)Nc2ccc(-c3cnc(-c4ccc(NC(=O)[C@@H]5C[C@@H](O)CN5C(=O)Cc5cccc(C)c5)cc4)o3)cc2)c1` [XY-51, (2S,4R,2′S,4′R)-N,N′-(1,3-oxazole-2,5-diyldi-4,1-phenylene)bis(4-hydroxy-1-((3-methylphenyl)acetyl)-2-pyrrolidinecarboxamide)], the EC50 under setting [1] lay in the range of 100 to 999 nM.

With `C[C@H](O)[C@@H](NC(=O)c1ccccc1)C(=O)N1CCC[C@H]1C(=O)Nc1ccc(-c2cnc(-c3ccc(NC(=O)[C@@H]4CCCN4C(=O)[C@H](NC(=O)c4ccccc4)[C@H](C)O)cc3)o2)cc1` [Example D-18, (R,S,2S,2′S)-N,N′-(4,4′-(oxazole-2,5-diyl)bis(4,1-phenylene))bis(1-((2R,3S)-2-benzamido-3-hydroxybutanoyl)pyrrolidine-2-carboxamide)], the EC50 is, setting by setting: under setting [4], 1000 to 10000 nM; (read-out: EC50 1b) 5960 nM.

As to `O=C(Nc1ccc(-c2cnc(-c3ccc(NC(=O)C4CC5CC5N4C(=O)C(O)c4ccccc4)cc3)o2)cc1)C1CC2CC2N1C(=O)C(O)c1ccccc1` [CB-5, (1S,3S,5S,1′S,3′S,5′S)-N,N′-(1,3-oxazole-2,5-diyldi-4,1-phenylene)bis(2-((2S)-2-hydroxy-2-phenylacetyl)-2-azabicyclo[3.1.0]hexane-3-carboxamide)], under setting [4], the EC50 was in the range of 4.57 to 99 nM.

`O=C(Nc1ccc(-c2cnc(-c3ccc(NC(=O)[C@@H]4CCCN4C(=O)c4cccnc4)cc3)o2)cc1)[C@@H]1CCCN1C(=O)c1cccnc1` [XY-4, (2S,2′S)-N,N′-(1,3-oxazole-2,5-diyldi-4,1-phenylene)bis(1-(3-pyridinylcarbonyl)-2-pyrrolidinecarboxamide)]: under setting [1], the EC50 lay within 100 to 999 nM.

Regarding `CN(C)[C@H](C(=O)N1CCC[C@H]1C(=O)Nc1ccc(-c2nnc(-c3ccc(NC(=O)[C@@H]4CCCN4C(=O)[C@H](c4ccccc4)N(C)C)cc3)o2)cc1)c1ccccc1` [RK-39, (2S,2′S)-N,N′-(1,3,4-oxadiazole-2,5-diyldi-4,1-phenylene)bis(1-((2S)-2-(dimethylamino)-2-phenylacetyl)-2-pyrrolidinecarboxamide)], the EC50 by setting is: under setting [1], less than 4.57 nM; under setting [2], less than 5 nM.

In the case of `CC(C)(C)O[C@@H]1C[C@@H](C(=O)Nc2ccc(-c3cnc(-c4ccc(NC(=O)[C@@H]5C[C@@H](OC(C)(C)C)CN5C(=O)c5cccs5)cc4)o3)cc2)N(C(=O)c2cccs2)C1` [XY-76, (2S,4R,2′S,4′R)-N,N′-(1,3-oxazole-2,5-diyldi-4,1-phenylene)bis(4-tert-butoxy-1-(2-thienylcarbonyl)-2-pyrrolidinecarboxamide)], the EC50 under setting [1] was 1000 to 10000 nM.

As to `O=C(Nc1ccc(-c2nc[nH]c2-c2ccc(NC(=O)[C@@H]3CCCN3C(=O)[C@@H](O)c3ccccc3)cc2)cc1)[C@@H]1CCCN1C(=O)[C@@H](O)c1ccccc1` [JG-44, (2S,2′S)-N,N′-(1H-imidazole-4,5-diyldi-4,1-phenylene)bis(1-((2S)-2-hydroxy-2-phenylacetyl)-2-pyrrolidinecarboxamide)], the concentration for a half-maximal effect (EC50) under setting [3] lay within 100 to 999 nM.

Consider `COC(C(=O)N1C[C@H](OC(C)(C)C)C[C@H]1C(=O)Nc1ccc(-c2cnc(-c3ccc(NC(=O)[C@@H]4C[C@@H](OC(C)(C)C)CN4C(=O)C(OC)c4ccccc4)cc3)o2)cc1)c1ccccc1` (stereo partly drawn) [XY-67, (2S,4R,2′S,4′R)-N,N′-(1,3-oxazole-2,5-diyldi-4,1-phenylene)bis(4-tert-butoxy-1-(methoxy(phenyl)acetyl)-2-pyrrolidinecarboxamide)], for which the half-maximal effective concentration (EC50) under setting [1] fell in the range of 4.57 to 99 nM.

As for `C[C@H](NC(=O)[C@H](c1ccccc1)N(C)C)C(=O)Nc1ccc(-c2nnc(-c3ccc(NC(=O)[C@H](C)NC(=O)[C@H](c4ccccc4)N(C)C)cc3)o2)cc1` [RK-38, (2S,2′S)-N,N′-(1,3,4-oxadiazole-2,5-diyldi-4,1-phenylene)bis(2-(((2S)-2-(dimethylamino)-2-phenylacetyl)amino)propanamide)], the 50% effective concentration (EC50) is, setting by setting: under setting [1], less than 4.57 nM; under setting [2], less than 5 nM.

For the molecule `CC(C)[C@H](NC(=O)Cc1ccccc1)C(=O)Nc1ccc(-c2cnc(-c3ccc(NC(=O)[C@@H](NC(=O)Cc4ccccc4)C(C)C)cc3)o2)cc1` [JG-12, (2S,2′S)-N,N′-(1,3-oxazole-2,5-diyldi-4,1-phenylene)bis(3-methyl-2-((phenylacetyl)amino)butanamide)], the EC50 under setting [3] was in the range of 4.57 to 99 nM.

For `O=C(Nc1ccc(-c2cnc(-c3ccc(NC(=O)[C@@H]4CCCN4C(=O)Cc4ccc(F)cc4)cc3)o2)cc1)[C@@H]1CCCN1C(=O)Cc1ccc(F)cc1` [XY-22, (2S,2′S)-N,N′-(1,3-oxazole-2,5-diyldi-4,1-phenylene)bis(1-((4-fluorophenyl)acetyl)-2-pyrrolidinecarboxamide)], the EC50 is, setting by setting: under setting [1], less than 4.57 nM; under setting [2], less than 4.5 nM.

As to `O=C(Nc1ccc(-c2nnc(-c3ccc(NC(=O)[C@@H]4CCCN4C(=O)c4ccco4)cc3)o2)cc1)[C@@H]1CCCN1C(=O)c1ccco1` [RK-13, (2S,2′S)-N,N′-(1,3,4-oxadiazole-2,5-diyldi-4,1-phenylene)bis(1-(2-furoyl)-2-pyrrolidinecarboxamide)], under setting [3], the 50% effective concentration (EC50) was 100 to 999 nM.

For the molecule `CC(Oc1cccc(Cl)c1)C(=O)N1CCC[C@H]1C(=O)Nc1ccc(-c2cnc(-c3ccc(NC(=O)[C@@H]4CCCN4C(=O)C(C)Oc4cccc(Cl)c4)cc3)o2)cc1` (stereo partly drawn) [XY-12, (2S,2′S)-N,N′-(1,3-oxazole-2,5-diyldi-4,1-phenylene)bis(1-(2-(3-chlorophenoxy)propanoyl)-2-pyrrolidinecarboxamide)], the 50% effective concentration (EC50) was 100 to 999 nM under setting [1] and 220 nM under setting [2].
